Data from patent publication US4940723A, “Use of bis-(5-amidino-2-benzimidazolyl) methane (BABIM) to treat arthritis” (University of North Carolina, Chapel Hill, priority 1988, dated 1990).
“And” between values parts separate entries of the source, which are not always exact repeats. Identical values can stand only once.

Assays:
plasmin = conditions: in words; cited from earlier work
[1] = Toxicity observation (physical, behavioral, organ histology) in BABIM-treated rats; assay type: in vivo, Lewis rats
Method: (§1) After the rats were killed, autopsies were performed. The liver, spleen, kidneys, adrenal glands, and the skinned distal hind legs were saved for further examination. The livers were weighed individually, and a sample of each was frozen and held for ELISA of PG-APS fragments. All other tissues were fixed in phosphate-buffered formalin solution. The bones were decalcified in formic acid-sodium citrate solution. Sections were stained with hematoxylin and eosin.
(§2) The dosing with inhibitor was begun two days before the induction of arthritis and was continued on a daily basis through day 6. From

PG-APS-induced arthritis [2] = experiment: Clinical scoring of PG-APS-induced arthritis; assay type: in vivo, Lewis rats
Method: (§3) Inbred female Lewis rats were purchased from Charles River Laboratories, Inc. Their mean body weight at the start of the study was 145 g. Arthritis was induced by a single intraperitoneal injection of the 10S fraction of purified cell wall material in PBS. The volume was 0.5 ml, and the dose of PG-APS was equivalent to 15 μg of rhamnose content per gram of body weight. For the administration of BABIM into the tail vein the animals were lightly anesthetized with ether. The inhibitor was contained in 0.1 ml of saline. Control animals were injected in the same way, but received saline only. All rats had free access to food and water. Nineteen days after the initiation of arthritis, they were killed with an overdose of ether.
Severity of the arthritis was judged daily for the first 11 days after PG-APS injection and every one to three days. Involvement of each extremity was quantified on a scale from 0-4, yielding a maximum combined score of 16. Grading was restricted to the wrist and ankle joints and all joints distal from there. The individual score was based on the number of joints involved, the degree of cutaneous erythema, the extent of the swelling of the skin and periarticular soft tissue, and the enlargement and deformities of the joints.
The basic design of the experiments was as follows. Arthritis was induced in two groups of rats by the intraperitoneal application of PG-APS fragments. One group of animals received repeated injections of BABIM dissolved in saline, while the other group received saline only. The inhibitor dose of 10 mg/kg body weight was selected because it has been found effective in preliminary studies.
as §2

[3] = Dissolution in isotonic saline; assay type: physicochemical
Method: BABIM was synthesized according to established procedures. Purity of the compound was ascertained by infrared and nuclear magnetic resonance spectroscopy, thin-layer chromatography and elemental analysis. […] Solutions were prepared fresh on the day they were used.

PG-APS deposits in liver = experiment: Quantification of PG-APS deposits in liver tissue (ELISA); assay type: in vivo, Lewis rats
Method: Measurements were based on a solid-phase enzyme-linked immunosorbent assay (ELISA) as known in the art. Briefly, microtiter plates were charged with group A cell wall antibodies and non-specific binding sites were blocked with human albumin. The coated walls were interacted with the tissue samples, and retention of PG-APS was determined from phosphate hydrolysis following sequential addition of affinity-purified biotinylated cell wall antibodies, avidin-alkaline phosphatase complexes and enzyme substrate. Standard curves were prepared with various amounts of the 10S PG-APS material and were used to correlate enzyme activity with levels of tissue deposits.
as §3, with “of ether. […]” for “of ether.”

granulomatous splenitis = experiment: Splenic granulomatous involvement (PG-APS-induced granulomatous splenitis); assay type: in vivo, Lewis rats
Method: as §3, §1, §2
*Disease was scored on a scale of 0-4, based on the percentage of
granulomatous replacement of splenic parenchyma, where 0 = none, 1 = <25%

trypsin = conditions: in words; cited from earlier work
PG-APS-induced arthritis [4] = experiment: Histological grading of the severity of PG-APS-induced arthritis (hind leg); assay type: in vivo, Lewis rats
Method: as §3, §1
For this evaluation the hind legs were used because they were more severely involved than the front legs. Both hind legs were studied, but as the disease processes were always symmetrical only one leg was scored. Included in the histologic sections were the distal tibia with the ankle joint, the tarsal bones, and the metatarsals. These were ranked on a scale of 0-4, based on the extent of bone marrow hyperplasia, the density of neutrophilic infiltration in bone and soft tissues, the degree of destruction of trabecular and cortical bone, and the magnitude of the synovial and periosteal proliferative response.
as §2

hemolytic complement = conditions: in words; cited from earlier work
[5] = tested on: PG-APS induced granulomatous hepatitis; experiment: Liver weight and hepatic granulomata (PG-APS-induced granulomatous hepatitis); assay type: in vivo, Lewis rats
Method: as §3, §1, §2

Cls = conditions: in words; cited from earlier work
Clr = conditions: in words; cited from earlier work
urokinase = conditions: in words; cited from earlier work
adjuvant arthritis = conditions: Sprague-Dawley rats; cited from earlier work

Structure (SMILES): N=C(N)c1ccc2nc(Cc3nc4ccc(C(=N)N)cc4[nH]3)[nH]c2c1 [BABIM, bis-(5-amidino-2-benzimidazolyl) methane]
- Plasmin inhibition (plasmin): potent inhibitor
- Physical or behavioral abnormalities caused by the drug ([1]; 10 mg/kg, repeated i.v. injections): None of the recipients of BABIM showed any physical or behavioral abnormalities
- BABIM related toxicity, histological examination ([1]; liver, kidney, adrenal glands, and spleen): absence of BABIM related toxicity
- Effect of 10 mg/kg dose in preliminary studies (PG-APS-induced arthritis [2]; 10 mg/kg body weight, preliminary studies): effective
- Suppression of clinical signs of arthritis (PG-APS-induced arthritis [2]; FIG. 1, initial response and recurrence, 10 mg/kg): suppressed the clinical signs of arthritis dramatically
- Relative suppression of arthritis versus hepatic and splenic granulomatous response (PG-APS-induced arthritis [2]; arthritis component compared with granulomata): more effectively dealt with
- Clinical score (individual animal) (PG-APS-induced arthritis [2]; individual BABIM-treated rats, final day (day 19), 10 mg/kg i.v. from day -2, scale 0-4 per extremity, maximum combined 16, 10 mg/kg): 0 and 1 and 2
- Treated rats completely free of arthritis at the initial peak (PG-APS-induced arthritis [2]; initial peak): 3 of the 7 treated rats
- Clinical score, Mean ± SD (PG-APS-induced arthritis [2]; n=7, final day of experiment, P < 0.0001 versus vehicle (6.79 ± 2.86)): 0.43 ± 0.79
- Treated rats without symptoms during the recurrence (PG-APS-induced arthritis [2]; recurrence): five
- Blockade of recurrence of the disease (PG-APS-induced arthritis [2]; versus primary response): blocked as completely as the primary response
- Solubility in isotonic saline [3]: easily dissolved
- PG-APS deposits, Mean ± SD (PG-APS deposits in liver; liver, n=7, vehicle 0.226 ± 0.072): 0.237 ± 0.055 mg
- Total amounts of PG-APS fragments deposited in liver (PG-APS deposits in liver; versus untreated animals): nearly the same
- Inhibitor-treated animals with granulomatous inflammation in the spleen (granulomatous splenitis; all untreated rats affected): three
- Splenic disease score, Mean ± SD (granulomatous splenitis; n=7, scale 0-4, not significantly different from vehicle 2.63 ± 1.3 (P > 0.2)): 1.71 ± 1.5
- BABIM recipients rated the highest splenic grade (score of 4) (granulomatous splenitis; rat, in vivo): three
- BABIM recipients with no splenic disease (granulomatous splenitis; rat, in vivo): four
- Trypsin inhibition (trypsin): potent inhibitor
- Bone marrow composition in calcaneus (PG-APS-induced arthritis [4]; FIG. 2B, day 19): Predominantly fatty marrow
- Inflammation of synovial recess of ankle joint (PG-APS-induced arthritis [4]; FIG. 4B, day 19): inflammation is absent
- Appearance of joints and bone marrow spaces (PG-APS-induced arthritis [4]; cell wall-injected and BABIM-treated Lewis rats): pristine appearance
- BABIM-treated animals with complete absence of histological joint/bone abnormalities (PG-APS-induced arthritis [4]; day 19, FIGS. 2B, 3B, 4B): five
- Histologic score (individual animal) (PG-APS-induced arthritis [4]; individual BABIM-treated rats, day 19, scale 0-4, 10 mg/kg i.v., 10 mg/kg): 0 and 1.5 and 1
- Histologic score, Mean ± SD (PG-APS-induced arthritis [4]; n=7, day 19, P < 0.0001 versus vehicle (2.81 ± 0.46)): 0.36 ± 0.63
- Joint changes in the two BABIM-treated animals that developed joint disease (PG-APS-induced arthritis [4]; versus untreated rats): on a much smaller scale
- Inhibition in hemolytic complement tests (hemolytic complement): only weakly inhibitory
- Reduction in the number of hepatic granulomata ([5]; 0.5 cm^2 liver sections, versus untreated): two-thirds
- Granulomata, No. per section, Mean ± SD ([5]; liver, 0.5 cm^2 sections, n=7, P < 0.005 versus vehicle (81.8 ± 34.5)): 25.6 ± 26.3
- Percentage of centrally necrotic lesions ([5]; liver, both groups): approximately 50%
- Granulomata, % with necrosis ([5]; liver, n=7, vehicle 56): 43%
- Weight of Liver, Mean ± SD ([5]; n=7, day 19, P < 0.002 versus vehicle (18.5 ± 3.8)): 11.0 ± 3.5 gm
- Size and makeup of hepatic granulomata ([5]; versus untreated animals): same size and makeup
- Inhibition in assays of Cls (Cls): only weakly inhibitory
- Inhibition in assays of Clr (Clr): only weakly inhibitory
- Urokinase inhibition (urokinase): potent inhibitor

Structure (SMILES): N=C(N)c1ccc2cc(OC(=O)c3ccc(N=C(N)N)cc3)ccc2c1 [FUT-175]
- Influence on adjuvant arthritis (adjuvant arthritis): beneficial influence
